Measurements taken from paper PMC10533412, “Phosphoantigens glue butyrophilin 3A1 and 2A1 to activate Vγ9Vδ2 T cells” (Nature, 2023).
Where “and” joins values, the source holds several entries; their conditions need not be identical. Identical values can stand only once.

Key:
[1] = system: MIA PaCa-2 cells; test: Cell killing assay: cytotoxicity of Vγ9Vδ2 T cells towards pAg- or zoledronate-treated MIA PaCa-2 cells (luciferase); assay type: cell-based, human; conditions: Homo sapiens, MIA PaCa-2, read-out: EC50 (M) for MIA PaCa-2 cell lysis mediated by HMBPP analogs and Vγ9Vδ2 T cells
Procedure: MIA PaCa-2 cells were infected with lentivirus bearing luciferase transgene. Luciferase-positive cells were plated at 5.0 × 10^3 cells per well in 384-well plates 1 day before transfection. All plasmids were transfected into BTN2A^−/− MIA PaCa-2 (BTN2A1/BTN2A2 KO) cells using Lipofectamine 2000 reagent. […] Stable-lite luciferase (Vazyme) was added to each well and the luciferase signal was immediately measured by using the PerkinElmer EnVision microplate reader.
Percentage of lysis was calculated using the following equation: percentage of specific lysis = (maximum luciferase − experimental luciferase)/maximum luciferase × 100.

[2] = target: T1, BTN3A1 B30.2 domain (Homo sapiens, UniProt O00481); test: ITC: pAg binding to the BTN3A1 B30.2 domain; conditions: 25 °C, read-out: KD, pAg binding to BTN3A1 B30.2 alone
T1 construct: The BTN3A1 B30.2 domain was expressed and purified as described previously; made in house
Procedure: (§1) ITC binding fits were calculated using MicroCal Analysis software.
For pAg binding to the BTN3A1 B30.2 domain, the sample cell and injection syringe were filled with the buffer containing 100 µM protein and 1 mM HMBPP, respectively, or 400 µM protein and 4 mM DMAPP (IPP), respectively.

[3] = target: T2, preconditioned BTN2A1–BTN3A1 B30.2 complex (Homo sapiens, UniProt O00481+Q7KYR7); test: ITC: pAg binding to the preconditioned BTN2A1 B30.2 and BTN3A1 B30.2 complex
T2 construct: The BTN3A1 B30.2 domain was expressed and purified as described previously; 6xHis; made in house; host or cells: Escherichia coli BL21 (DE3) for BTN2A1 B30.2
Procedure: as §1
For HMBPP binding to the preconditioned BTN2A1 B30.2 and BTN3A1 B30.2 complex, BTN2A1 B30.2 (20 µM) and BTN3A1 B30.2 (10 µM) were incubated in the buffer at a 2:1 ratio and loaded into the sample cell, and the injection syringe was filled with buffer containing 100 µM HMBPP.
For DMAPP/IPP binding to the preconditioned BTN2A1 B30.2 and BTN3A1 B30.2 complex, BTN2A1 B30.2 (200 µM) and BTN3A1 B30.2 (100 µM) were incubated in buffer at a 2:1 ratio and loaded into the sample cell, and the injection syringe was filled with buffer containing 1 mM DMAPP/IPP.
For other pAgs, their concentrations were adjusted to 500 µM, and BTN2A1 B30.2 and BTN3A1 B30.2 were adjusted to 100 µM and 50 µM at a 2:1 ratio.

[4] = target: VpBTN3 BFI (Vicugna pacos, UniProt A0A345DF50); test: ITC: pAg binding to VpBTN3 BFI; design: species or system alpaca (Vicugna pacos)
Procedure: (§2) ITC experiments were performed using the MicroCal PEAQ-ITC instrument (GE Healthcare) at 25 °C. We used an initial injection of 0.4 μl followed by 19 injections (2 µl each) at 150 s time intervals. ITC binding fits were calculated using MicroCal Analysis software. The samples were prepared using a buffer (20 mM HEPES pH 7.5, 150 mM NaCl).
(§3) ITC experiments of HMBPP, DMAPP or IPP binding to the VpBTN3 BFI (or the preconditioned VpBTN3 BFI and VpBTN2 BFI complex) and VpBTN2 BFI (or VpBTN1 BFI) binding to VpBTN3 BFI in the presence of HMBPP, DMAPP or IPP were performed according to the same procedures as for the BTN3A1 B30.2 and BTN2A1 B30.2.

[5] = system: VpBTN1 BFI–VpBTN3 BFI; test: ITC: VpBTN1 BFI binding to VpBTN3 BFI in the presence of pAg; design: species or system alpaca (Vicugna pacos)
Procedure: as §2, §3

[6] = system: Vγ9Vδ2 T cells; conditions: cited from earlier work
[7] = system: BTN2A−/− MIA PaCa-2 (BTN2A1/BTN2A2 KO) cells; test: Cell killing assay with BTN2A−/− MIA PaCa-2 (BTN2A1/BTN2A2 KO) cells expressing BTN2A1/BTN2A2 variants; conditions: replicates and mean, listed as IPP

VpBTN3 BFI, sequence (A0A345DF50 entry or part of it): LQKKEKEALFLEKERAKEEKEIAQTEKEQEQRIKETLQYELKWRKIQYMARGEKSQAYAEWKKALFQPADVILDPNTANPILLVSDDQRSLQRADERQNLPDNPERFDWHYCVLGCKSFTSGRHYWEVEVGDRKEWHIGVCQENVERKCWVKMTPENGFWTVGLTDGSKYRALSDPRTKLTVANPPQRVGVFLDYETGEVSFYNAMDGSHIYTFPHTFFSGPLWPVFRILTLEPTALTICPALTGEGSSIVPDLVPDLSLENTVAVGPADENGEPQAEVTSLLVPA
T2 sequence (O00481 322-513 limits assumed): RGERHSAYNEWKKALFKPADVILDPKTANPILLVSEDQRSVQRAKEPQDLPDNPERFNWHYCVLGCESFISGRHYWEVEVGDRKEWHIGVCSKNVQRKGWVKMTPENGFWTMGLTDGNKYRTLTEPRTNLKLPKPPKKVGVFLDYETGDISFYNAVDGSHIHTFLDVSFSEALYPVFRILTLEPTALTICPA
T2 sequence (Q7KYR7 316-527 limits assumed): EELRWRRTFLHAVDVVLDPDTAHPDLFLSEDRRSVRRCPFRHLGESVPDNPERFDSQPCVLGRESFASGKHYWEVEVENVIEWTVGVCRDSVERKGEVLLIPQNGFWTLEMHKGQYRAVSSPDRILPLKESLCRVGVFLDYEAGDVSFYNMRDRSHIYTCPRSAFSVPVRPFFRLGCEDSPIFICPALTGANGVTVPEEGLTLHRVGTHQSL
T1 sequence (O00481 322-513 limits assumed): as the sequence (O00481 322-513 limits assumed) above

SMILES: C=C(C)CCO[P@@](=O)(O)OP(=O)(O)O [Compound 3, 3-methylbut-3-en-1-yl diphosphate]
- EC50 [1]: 0.00493 M
- Kd [2]: 658 µM
- Kd [3]: 625 µM
- Kd [4]: 96.1 µM
- VpBTN1 binding to VpBTN3 in the presence of pAg [5]: does not bind
- Vγ9Vδ2 T cell activation [6]: weakly activate
- Cytotoxicity of Vγ9Vδ2 T cells (percentage of specific lysis) ([7]; IPP log concentration -3, 2A1 WT cells): 80.272% and 79.8722% and 80.6% and 81.6589%
- Cytotoxicity of Vγ9Vδ2 T cells (percentage of specific lysis) ([7]; IPP log concentration -3, 2A1 ∆C cells): 66.24% and 65.5729% and 68.622% and 64.5211%
- Cytotoxicity of Vγ9Vδ2 T cells (percentage of specific lysis) ([7]; IPP log concentration -4, 2A1 WT cells): 65.5992% and 65.1182% and 63.37% and 59.3975%
- Cytotoxicity of Vγ9Vδ2 T cells (percentage of specific lysis) ([7]; IPP log concentration -4, 2A1 ∆C cells): 41.6% and 36.6007% and 47.2763% and 40.914%
- Cytotoxicity of Vγ9Vδ2 T cells (percentage of specific lysis) ([7]; IPP log concentration -5, 2A1 WT cells): 35.2807% and 27.2598% and 28.66% and 23.4468%
- Cytotoxicity of Vγ9Vδ2 T cells (percentage of specific lysis) ([7]; IPP log concentration -5, 2A1 ∆C cells): 1.679% and 1.84% and 2.699% and 0.4994%
- Cytotoxicity of Vγ9Vδ2 T cells (percentage of specific lysis) ([7]; IPP log concentration -6, 2A1 WT cells): 15.0716% and 6.17% and 6.634% and -1.341%
- Cytotoxicity of Vγ9Vδ2 T cells (percentage of specific lysis) ([7]; IPP log concentration -6, 2A1 ∆C cells): -15.39% and -15.1198% and -17.7309% and -13.3339%
- Cytotoxicity of Vγ9Vδ2 T cells (percentage of specific lysis) ([7]; IPP log concentration -7, 2A1 WT cells): 11.2422% and 4.023% and 5.64% and 1.654%
- Cytotoxicity of Vγ9Vδ2 T cells (percentage of specific lysis) ([7]; IPP log concentration -7, 2A1 ∆C cells): -18.31% and -18.7728% and -18.1549% and -17.992%
- Cytotoxicity of Vγ9Vδ2 T cells (percentage of specific lysis) ([7]; IPP log concentration -8, 2A1 WT cells): 11.2149% and 6.571% and 5.735% and -0.5797%
- Cytotoxicity of Vγ9Vδ2 T cells (percentage of specific lysis) ([7]; IPP log concentration -8, 2A1 ∆C cells): -16.71% and -15.5368% and -14.5401% and -20.0505%
- Cytotoxicity of Vγ9Vδ2 T cells (percentage of specific lysis) ([7]; IPP log concentration -9, 2A1 WT cells): 7.561% and 7.582% and 2.411% and -7.912%
- Cytotoxicity of Vγ9Vδ2 T cells (percentage of specific lysis) ([7]; IPP log concentration -9, 2A1 ∆C cells): -17.93% and -16.44% and -18.8245% and -18.5163%
- Cytotoxicity of Vγ9Vδ2 T cells (percentage of specific lysis) ([7]; IPP log concentration -10, 2A1 WT cells): 9.041% and 9.773% and 3.545% and -8.179%
- Cytotoxicity of Vγ9Vδ2 T cells (percentage of specific lysis) ([7]; IPP log concentration -10, 2A1 ∆C cells): -16.6% and -16.8802% and -17.0673% and -15.8455%
